A short description of data set [1]: Static bioassay, lethal concentration to coho salmon. It counts as in vivo, Oncorhynchus kisutch. The following applies: coho salmon, water, 10 C. As for the experimental part:
(§1) Bioassays utilized water from an artesian well at Moscow, Idaho and from the headwaters of the Palouse River, also in Idaho. The chemical characteristics of the artesian water were analyzed as follows: Total hardness 67-120 mg/l; total dissolved solids, 160-175 mg/l; and pH 7.1. The chemistry of the Palouse River water was analyzed as follows: total hardness 17 mg/l; methyl orange alkalinity 26 mg/l; total dissolved solids, 32 mg/l and pH, 7.0.
(§2) Fish were acclimated to test temperatures, usually at 5, 7.5, 10, 15 and 20 degrees Celsius (C), at least 60 hours before exposure to toxicants. For fish and crayfish four water baths regulated the temperature of assay aquaria. Each water bath contained a battery of 20 identical 19-liter clear glass containers or 11.4-liter plastic aquaria lined with disposable polyethylene bags and covered with Plexiglass lids to reduce evaporation. For larger fish and large numbers of fish the bioassays were made in two temperature controlled rooms that contained a series of 700-liter circular fiberglass vats and a series of 76- and 91-liter plastic containers.
(§3) Standard bioassay techniques were used in sorting fish and conducting the tests. Fish were placed in aerated test aquaria overnight to permit fish to recover from stress due to handling and to deprive them of food. The average load varied but most bioassays were conducted with about 1 g of fish per liter of water.
(§4) Aliquots of organophosphates were dissolved in ethanol and dispensed to the aquaria to provide concentrations suitable for obtaining the LC0 and LC50 of desirable fish and the LC50 and LC100 of target fish. Control fish were conditioned in the same manner as the test fish, but no chemical was added to the control vessels during the assays. After the addition of a chemical, observations were made mainly at 3, 6, 12, 24, 48, 96, and 192 h. The weight and fork length of fish were obtained when fishes were sacrificed.
(§5) Delineation bioassays determined primarily the LC50 and LC100 of sucker and stickleback and the LC0 and LC50 of salmonids.
(§6) The statistical LC1, LC50, and LC99 were interpolated and/or extrapolated using probit graph paper to approximate the LC0, LC50, and LC100 when the latter set of values was not closely determined by single concentrations in a series.
(§7) Threespine stickleback, brook stickleback, bridgelip sucker, white sucker, chinook salmon, coho salmon, sockeye salmon, kokanee, Kamloops trout, cutthroat trout, and brook trout were treated with various concentrations of 2, 2, 2, 1-tetrachloroethyl diethyl phosphate and at various temperatures to determine approximate selectivity and safety indices. The approximate LC50 and LC100 of the target fishes (threespine and brook sticklebacks and bridgelip and white suckers) are tabulated in Table 5. The 96-hour selectivity and safety indices of selected species of salmonids versus the threespine stickleback are tabulated in Table 7.

Data set [2] can be described thus: Static bioassay, lethal concentration to kokanee. It counts as in vivo, a land-locked subspecies of sockeye salmon. The following applies: kokanee, water, 15 C. As for the experimental part: as §1, §2, §3, §4, §5, §6, §7
Another data set deals with kokanee. Nature of the data set: Static bioassay, lethal concentration to kokanee. It counts as in vivo, a land-locked subspecies of sockeye salmon. The following applies: 15 C. The method, then: as §1, §2, §3, §4, §5, §6, §7
The nature of data set [3]: Half-life in river water with or without river mud, measured by bioassay with stickleback. It counts as physicochemical. The following applies: river water with layer of river mud; 15 C. As for the experimental part: The rate of deactivation was measured by bioassay with stickleback and the data were analyzed by conventional methods.
In a further data set the test system is chinook salmon. Description: Deactivation with potassium permanganate, mortality of chinook salmon. It counts as in vivo, O. tschawytscha.
In the next data set the test system is carp. Description: Bioassay, carp. It counts as in vivo, Cyprinus carpio. The following applies: for selectivity to carp: in vivo. The method, then:
In a later bioassay a concentration of 1 mg/l of 2, 2-dichlorovinyl diethyl phosphate killed a 20 g carp (68 mm) in 10 l of artesian well water (load, 2.0 g/l) at 10 C. in 30 hours.
A subsequent series of bioassays tested concentrations of 0.0, 0.6, 0.8, 1.0, 1.5 and 2.0 mg/l of 2, 2-dichlorovinyl diethyl phosphate with larger carp (fork length range, 115-150 mm; mean weight, 44 g) using 10 fish per concentration (load, 0.7 g/l) and artesian well water at 10 C. A concentration of 2.0 mg/l of the chemical killed 100 percent of the carp in 24 hours and a concentration of 1.5 mg/l killed 90 percent of them in […] and 100 percent in 72 hours. No fish died in the control or at a concentration of 0.6 mg/l in 192-hour bioassays. In contrast the LC0 of salmonids exposed to 2, 2-dichlorovinyl diethyl phosphate varies between 4 and 8 mg/l in 48-hour bioassays and 2 and 6 mg/l in 96-hour bioassays at 10 C. (Table 2).

For the next data set, the system named is longnose sucker. Nature of the data set: Exploratory bioassay, longnose sucker. It counts as in vivo, C. catastomus. The following applies: less than 24 h; 15 C; 47 to 61 mm. The method, then: Cursory bioassays were made with small numbers of other fishes and a crayfish (Pacifasticus klamathensis) to check on the universal selectivity of the toxicants. The fishes included Arctic grayling (Thymallus arcticus), longnose sucker (C. catastomus), largescale sucker, (C. macrocheilus), and spotted sucker (Minytrema melanops).
A series of 24-hour bioassays was made with the longnose sucker (1 fish per aquarium) at a concentration range of 0.1 mg/l to 4.5 mg/l of 2, 2-dichlorovinyl diethyl phosphate. The chemical killed the longnose sucker (47 to 61 mm) at a concentration of 0.2 mg/l and higher in less than 24 hours at 15 C.
Three longnose suckers (about 125 mm) and three Arctic grayling (about 125 mm) were exposed to 10 μg/l of 2, 2, 2, 1-tetrachloroethyl diethyl phosphate. The suckers died between 14 and 22 hours at 13 C. The grayling were not affected in 48-hour biassays.

A further data set deals with stickleback. Description: Control of stickleback in 24-hour applications, usable concentration. The following applies: for recommended safe and effective concentration: river water tests. It counts as in vivo. An excerpt:
For field applications the concentration of the dichloro- and tetrachloro-compounds would vary with water quality--mainly with regard to water temperature and hydrogen ion concentrations. Generally, treated areas would contain water low in dissolved solids and a pH of 7 to 7.5. The activity of the chemicals would then be essentially similar to that determined in our tests using river water. For the treatment of rivers and shorelines of lakes the concentrations of the dichloro- and tetrachloro-compounds that would be used would be those that would kill stickleback or suckers in 12 to 24 hours. The information above, relating to Examples 1 and 12, substantiates improvement in fish culture by the addition of dichloroethyl or dichlorovinyl diethyl phosphate to an aqueous habitat at a concentration in water ranging between 0.1 and 10 mg/l. […] The information above, relating to Example 2, substantiates improvement in fish culture by the addition of tetrachloroethyl diethyl phosphate to an aqueous habitat at a concentration in water ranging between 4 and 80 μg/l.

Molecules are shown by their SMILES.

Regarding `CCOP(=O)(OCC)OC(Cl)C(Cl)(Cl)Cl` (stereo not shown) [2,2,2,1-tetrachloroethyl diethyl phosphate], the LC50 at 96 h amounted to 0.023 µg/mL in data set [1] (96 h) and 0.03 µg/mL in data set [2] (96 h). Moreover, the LC50 at 192 h in data set [1] (192 h) amounted to 0.015 µg/mL; in data set [2] (192 h) it was 0.027 µg/mL. Moreover, in data set [2] (48 h), the LC50 at 48 h stood at 0.04 µg/mL. In addition, the LC0 came to 30 µg/L in the data set on kokanee (48 h), 20 µg/L in the data set on kokanee (96 h) and 20 µg/L in the data set on kokanee (192 h).

Take `CCOP(=O)(OC=C(Cl)Cl)OCC` [2,2-dichlorovinyl diethyl phosphate]: the half-life in data set [3] is 15 days. The “deactivation by 1 equivalent weight of permanganate” value in the data set with chinook salmon (15 C) was “about 25%”. In the data set on chinook salmon (excessive concentrations of 2 Cl), the “effect of potassium permanganate on mortality” value is “delayed mortality”. Also, in the data set on carp (0.6 mg/l, 192 h, artesian well water, 10 C), the carp mortality result is “No fish died”. Also, the “time in which carp was killed” value in the data set on carp (1 mg/l, 20 g carp, artesian well water, 10 C) worked out at 30 h. In addition, the carp killed in the data set with carp (1.5 mg/l, 72 h, artesian well water, 10 C) stood at 100%; in the data set on carp (1.5 mg/l, 96 h, artesian well water, 10 C) it was 90%; with carp (2.0 mg/l, 24 h, artesian well water, 10 C), 100%. The selectivity to carp entry was “specific for the carp and bullhead catfish” in the data set with carp; “the carp died first” with carp (listed as 2, 2-dichlorovinyl diethyl phosphate). For the same compound, the “concentration that killed longnose sucker” value in the data set with longnose sucker was no less than 0.2 mg/L. Besides, the figures for the “recommended safe and effective concentration” value with stickleback (10 C) and in the data set on stickleback (15 C) were 5 mg/L and 3 mg/L, respectively. Also, the “concentrations for control (upper: greater than)” value in the data set with stickleback (Kamloops, 10 C, 24 h or less, river water) was 4-4 mg/l.

The values are drawn from patent publication US4395969A (priority 1981, dated 1983).
